Tests used:
PTGER2 (EP2) = PTGER2 (EP2) (Homo sapiens (Human), UniProt P43116); experiment: hEP2 b-arrestin assay (PathHunter HEK 293 PTGER2 b-arrestin cells); format: cell-based
Outline: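 Readout is β-galactosidase complementation luminescence, expressed as percent of DMSO control (duplicates). PathHunter HEK293 EP2/β-arrestin 2 cells, grown 24 h, received compound for 15 min at 37 °C before a 120 min challenge with PGE2 at 5 μM final, followed by 1 h detection at room temperature.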

PTRGER4 (EP4) = PTRGER4 (EP4) (Homo sapiens (Human), UniProt P35408); experiment: hEP4 b-arrestin assay (PathHunter HEK 293 PTGER4 b-arrestin cells); format: cell-based
Chain of PTRGER4 (EP4) (P35408 whole entry, looked up, the tested form may be a part): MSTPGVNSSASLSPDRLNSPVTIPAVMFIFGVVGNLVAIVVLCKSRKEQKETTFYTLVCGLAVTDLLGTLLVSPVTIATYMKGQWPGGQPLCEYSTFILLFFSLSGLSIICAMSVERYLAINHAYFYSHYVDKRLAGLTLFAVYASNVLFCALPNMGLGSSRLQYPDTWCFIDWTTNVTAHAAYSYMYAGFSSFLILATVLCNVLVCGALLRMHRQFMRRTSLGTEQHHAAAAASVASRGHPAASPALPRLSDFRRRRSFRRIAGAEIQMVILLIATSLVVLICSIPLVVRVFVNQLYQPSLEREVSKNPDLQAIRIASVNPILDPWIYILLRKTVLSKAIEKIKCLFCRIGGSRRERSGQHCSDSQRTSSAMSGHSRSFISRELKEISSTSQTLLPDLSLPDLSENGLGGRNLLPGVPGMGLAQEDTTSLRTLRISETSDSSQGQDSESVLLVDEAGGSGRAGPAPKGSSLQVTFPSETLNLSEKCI
Outline: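 Antagonist mode: compound is given 15 min at 37 °C, then 20 nM (final) PGE2 for 120 min, in HEK293 cells stably expressing EP4 fused to ProLink and β-arrestin 2 fused to EA. Recruitment read as β-gal luminescence after 1 h reagent at room temperature, as percent of DMSO control.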

[1] = hEP2 b-arrestin assay (values without asterisk)
[2] = hEP4 b-arrestin assay (values without asterisk)
[3] = antagonistic activity on hEP2, mean where measured multiple times
[4] = antagonistic activity on hEP4, mean where measured multiple times

Chain of PTGER2 (EP2) (P43116 whole entry): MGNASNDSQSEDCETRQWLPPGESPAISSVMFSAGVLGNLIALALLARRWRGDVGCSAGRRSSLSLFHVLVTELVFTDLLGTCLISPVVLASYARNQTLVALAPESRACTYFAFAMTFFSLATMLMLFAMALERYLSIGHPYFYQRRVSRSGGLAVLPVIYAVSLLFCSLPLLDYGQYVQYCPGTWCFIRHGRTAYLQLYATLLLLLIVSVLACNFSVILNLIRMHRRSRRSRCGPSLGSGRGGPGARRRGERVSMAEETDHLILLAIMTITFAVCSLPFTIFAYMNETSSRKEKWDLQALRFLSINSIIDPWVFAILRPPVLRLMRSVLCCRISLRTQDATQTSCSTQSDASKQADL

IC50 (PTGER2 (EP2); [1]) | IC50 (PTRGER4 (EP4); [2]) | IC50 (PTGER2 (EP2); [3]) | IC50 (PTRGER4 (EP4); [4]) | SMILES
234 nM | 507 nM | – | – | COc1ccc(F)c2c1cc(C#N)n2CCNc1cc(-c2cc(C(=O)O)cs2)ncn1 [Example 1008, 5-{6-[2-(2-Cyano-7-fluoro-4-methoxy-indol-1-yl)-ethylamino]-pyrimidin-4-yl}-thiophene-3-carboxylic acid]
19 nM | 19 nM | – | – | CCSc1cc(C(=O)O)cc(-c2cc(NCCn3c(C#N)cc4c(OC)ccc(F)c43)ncn2)c1 [Example 922, 3-{6-[2-(2-Cyano-7-fluoro-4-methoxy-indol-1-yl)-ethylamino]-pyrimidin-4-yl}-5-ethylsulfanyl-benzoic acid]
27 nM | 5 nM | – | – | CCOC(=O)OCOC(=O)c1sc(-c2cc(NCCn3c(C#N)cc4c(OC)ccc(F)c43)ncn2)cc1OCC [Example 1046, 5-{6-[2-(2-Cyano-7-fluoro-4-methoxy-indol-1-yl)-ethylamino]-pyrimidin-4-yl}-3-ethoxy-thiophene-2-carboxylic acid ethoxycarbonyloxymethyl ester]
– | – | 267 nM | 251 nM | COc1nc(-c2cc(NCCn3c(C)cc4c(OC)ccc(F)c43)ncn2)cs1 [compound 2]
6 nM | 17 nM | – | – | COc1ccc(F)c2c1cc(C#N)n2CCNc1cc(-c2c[nH]c3cnccc23)ncn1 [Example 967, 7-Fluoro-4-methoxy-1-{2-[6-(1H-pyrrolo[2,3-c]pyridin-3-yl)-pyrimidin-4-ylamino]-ethyl}-1H-indole-2-carbonitrile]
– | – | 53 nM | 299 nM | COc1ccc(F)c2c1cc(C)n2CCNc1cc(-c2cc(C)c(C(=O)O)c(C)c2)ncn1 [compound 289]
67 nM | 62 nM | – | – | COc1ccc(F)c2c1cc(C#N)n2CCNc1cc(-c2ccc(B(O)O)cc2)ncn1 [Example 989, (4-(6-((2-(2-Cyano-7-fluoro-4-methoxy-1H-indol-1-yl)ethyl)amino)pyrimidin-4-yl)phenyl)boronic acid]
8 nM | 28 nM | – | – | COc1ccc(F)c2c1cc(C#N)n2CCNc1cc(-c2ccc3[nH]cnc3c2)ncn1 [Example 984, 1-{2-[6-(1H-Benzoimidazol-5-yl)-pyrimidin-4-ylamino]-ethyl}-7-fluoro-4-methoxy-1H-indole-2-carbonitrile]
14 nM | 2 nM | – | – | CCNC(=O)c1sc(-c2cc(NCCn3c(C#N)cc4c(OC)ccc(F)c43)ncn2)cc1OCC [Example 1024, 5-{6-[2-(2-Cyano-7-fluoro-4-methoxy-indol-1-yl)-ethylamino]-pyrimidin-4-yl}-3-ethoxy-thiophene-2-carboxylic acid ethylamide]
– | – | 28 nM | 536 nM | COc1cc(-c2cc(NCCn3c(C)cc4c(OC)ccc(F)c43)ncn2)ccc1C(=O)O [compound 260]
131 nM | 450 nM | – | – | COc1ccc(F)c2c1cc(C#N)n2CCNc1cc(-c2ccnc(OC(F)F)c2)ncn1 [Example 1006, 1-{2-[6-(2-Difluoromethoxy-pyridin-4-yl)-pyrimidin-4-ylamino]-ethyl}-7-fluoro-4-methoxy-1H-indole-2-carbonitrile]
4 nM | 15 nM | – | – | COc1ccc(F)c2c1cc(C#N)n2CCNc1cc(-c2c[nH]c3ccccc23)ncn1 [Example 968, 7-Fluoro-1-{2-[6-(1H-indol-3-yl)-pyrimidin-4-ylamino]-ethyl)-4-methoxy-1H-indole-2-carbonitrile]
120 nM | 119 nM | – | – | COC(=O)N(C)c1ccc(-c2cc(NCCn3c(C#N)cc4c(OC)ccc(F)c43)ncn2)cc1 [Example 1056, (4-{6-[2-(2-Cyano-7-fluoro-4-methoxy-indol-1-yl)-ethylamino]-pyrimidin-4-yl}-phenyl)-methyl-carbamic acid methyl ester]
51 nM | 197 nM | – | – | COc1ccc(F)c2c1cc(C#N)n2CCNc1cc(-c2ccnc(N)c2)ncn1 [Example 988, 1-{2-[6-(2-Amino-pyridin-4-yl)-pyrimidin-4-ylamino]-ethyl}-7-fluoro-4-methoxy-1H-indole-2-carbonitrile]
142 nM | 540 nM | – | – | COc1ncc(-c2cc(NCCn3c(C#N)cc4c(OC)ccc(F)c43)ncn2)cn1 [Example 991, 7-Fluoro-4-methoxy-1-[2-(2′-methoxy-[4,5]bipyrimidinyl-6-ylamino)-ethyl]-1H-indole-2-carbonitrile]

More lines, now with the values behind:

SMILES | IC50 (PTGER2 (EP2); [1]) | IC50 (PTRGER4 (EP4); [2]) | IC50 (PTGER2 (EP2); [3]) | IC50 (PTRGER4 (EP4); [4])
CCOc1cc(-c2cc(NCCn3c(C)cc4c(OC)ccc(F)c43)ncn2)sc1C(C)O (stereo not drawn) [Example 1053, 1-(3-Ethoxy-5-{6-[2-(7-fluoro-4-methoxy-2-methyl-indol-1-yl)-ethylamino]-pyrimidin-4-yl}-thiophen-2-yl)-ethanol] | 10 nM | 100 nM | – | –
COc1ccc(F)c2c1cc(C#N)n2CCNc1cc(-c2ccc(-c3cn(C)c(C)n3)cc2)ncn1 [Example 824, 1-(2-{6-[4-(1,2-Dimethyl-1H-imidazol-4-yl)-phenyl]-pyrimidin-4-ylamino}-ethyl)-7-fluoro-4-methoxy-1H-indole-2-carbonitrile] | 8 nM | 7 nM | – | –
COc1ccc(F)c2c1cc(C)n2CCNc1cc(-c2ccc3c(c2)CNC3=O)ncn1 [compound 90, 5-{6-[2-(7-Fluoro-4-methoxy-2-methyl-indol-1-yl)-ethylamino]-pyrimidin-4-yl}-2,3-dihydro-isoindol-1-one] | – | – | 7 nM | 461 nM
COc1ccc(F)c2c1cc(C)n2CCNc1cc(-c2ccc(-c3csc(O)n3)cc2)ncn1 [Example 798, 4-(4-{6-[2-(7-Fluoro-4-methoxy-2-methyl-indol-1-yl)-ethylamino]-pyrimidin-4-yl}-phenyl)-thiazol-2-ol] | 28 nM | 123 nM | – | –
CCOc1cc(-c2cc(NCCn3c(C)cc4c(OC)ccc(F)c43)ncn2)ccc1-c1noc(=O)[nH]1 [Example 830, 3-(2-Ethoxy-4-{6-[2-(7-fluoro-4-methoxy-2-methyl-indol-1-yl)-ethylamino]-pyrimidin-4-yl}-phenyl)-[1,2,4]oxadiazol-5(4H)-one] | 3 nM | 12 nM | – | –
Cc1ccc(F)c2c1cc(C)n2CCNc1cc(-c2ccc(NC(N)=O)cc2)ncn1 [compound 40, (4-{6-[2-(7-Fluoro-2,4-dimethyl-indol-1-yl)-ethylamino]-pyrimidin-4-yl}-phenyl)-urea] | – | – | 86 nM | 392 nM
COc1ccc(F)c2c1cc(C#N)n2CCNc1cc(-c2ccc(-c3c[nH]c(C4CC4)n3)cc2)ncn1 [Example 863, 1-(2-{6-[4-(2-Cyclopropyl-1H-imidazol-4-yl)-phenyl]-pyrimidin-4-ylamino}-ethyl)-7-fluoro-4-methoxy-1H-indole-2-carbonitrile] | 5 nM | 3 nM | – | –
COc1ccc(F)c2c1cc(C)n2CCNc1cc(-c2cc(C(F)(F)F)c(-c3noc(=O)[nH]3)s2)ncn1 [Example 1062, 3-(5-{6-[2-(7-Fluoro-4-methoxy-2-methyl-indol-1-yl)-ethylamino]-pyrimidin-4-yl}-3-trifluoromethyl-thiophen-2-yl)-[1,2,4]oxadiazol-5(4H)-one] | 33 nM | 13 nM | – | –
CCOc1cc(-c2cc(NCCn3c(C)cc4c(C)ccc(F)c43)ncn2)ccc1C(=O)O [Example 158, 2-ethoxy-4-{6-[2-(7-fluoro-2,4-dimethyl-indol-1-yl)-ethylamino]-pyrimidin-4-yl}-benzoic acid] | – | – | 39 nM | 163 nM
COc1cc(F)cc2c1cc(C)n2CCNc1cc(-c2cc(Cl)c(C(=O)O)s2)ncn1 [compound 38, 3-Chloro-5-{6-[2-(6-fluoro-4-methoxy-2-methyl-indol-1-yl)-ethylamino]-pyrimidin-4-yl}-thiophene-2-carboxylic acid] | – | – | 5 nM | 39 nM
COc1cccc2c1cc(C)n2CCNc1cc(-c2ccc(S(N)(=O)=O)c(C(F)(F)F)c2)ncn1 [compound 380] | – | – | 58 nM | 677 nM
CSc1cc(-c2cc(NCCn3c(C)cc4c(Cl)ccc(Cl)c43)ncn2)cc(F)c1C(=O)O [compound 141, 4-{6-[2-(4,7-Dichloro-2-methyl-indol-1-yl)-ethylamino]-pyrimidin-4-yl}-2-fluoro-6-methylsulfanyl-benzoic acid] | – | – | 20 nM | 992 nM
CCOc1cc(-c2cc(NCCn3c(C)cc4c(OC)ccc(F)c43)ncn2)sc1NC(=O)CCO [Example 1074, N-(3-Ethoxy-5-{6-[2-(7-fluoro-4-methoxy-2-methyl-indol-1-yl)-ethylamino]-pyrimidin-4-yl}-thiophen-2-yl)-3-hydroxy-propionamide] | 9 nM | 34 nM | – | –
Cc1nc2cc(-c3cc(NCCn4c(C)cc5c(C)ccc(F)c54)ncn3)ccc2[nH]1 [compound 54] | – | – | 125 nM | 305 nM
Cc1cc(F)cc2c1cc(C)n2CCNc1cc(-c2ccc3cn[nH]c3c2)ncn1 [compound 7, [2-(6-Fluoro-2,4-dimethyl-indol-1-yl)-ethyl]-[6-(1H-indazol-6-yl)-pyrimidin-4-yl]-amine] | – | – | 98 nM | 556 nM
CCCSc1cc(-c2cc(NCCn3c(C)cc4c(C)c(F)cc(Cl)c43)ncn2)ccc1C(=O)O [compound 371] | – | – | 70 nM | 875 nM
CCOc1cc(-c2cc(NCCn3c(C#N)cc4ccccc43)ncn2)ccc1C(=O)O [compound 138, 4-{6-[2-(2-Cyano-indol-1-yl)-ethylamino]-pyrimidin-4-yl}-2-ethoxy-benzoic acid] | – | – | 7 nM | 567 nM
CCOc1cc(-c2cc(NCCn3c(C)cc4c(F)cc(F)c(F)c43)ncn2)sc1C(=O)O [compound 274] | – | – | 1 nM | 43 nM

Reference: patent publication US12011444B2, “N-substituted indole derivatives as PGE2 receptor modulators” (Idorsia Pharmaceuticals Ltd, priority 2015, dated 2024)
